From patent publication US8399502B2, “Analogs of indole-3-carbinol and their use as agents against infection” (priority 2008, dated 2013)
In brackets after ≈: the same amount, converted by molar mass.

Experiments:
Format in all cases: cell-based
[1] = system: methicillin-resistant Staphylococcus aureus (MRSA); test: microbe, parasite or virus in culture; conditions: read-out: MIC MRSA
[2] = system: methicillin-susceptible Staphylococcus aureus (MSSA); test: microbe, parasite or virus in culture; conditions: read-out: MIC MSSA
[3] = system: Bacillus anthracis (BA; Gram-positive); test: microbe, parasite or virus in culture; conditions: read-out: MIC BA
[4] = system: penicillin-resistant S. pneumoniae (PRSP); test: microbe, parasite or virus in culture; conditions: Streptococcus pneumoniae, read-out: MIC PRSP
[5] = system: penicillin-susceptible S. pneumoniae (PSSP); test: microbe, parasite or virus in culture; conditions: Streptococcus pneumoniae, read-out: MIC PSSP
[6] = system: Francisella tularensis (FT; Gram-negative); test: microbe, parasite or virus in culture; conditions: read-out: MIC FT
[7] = system: Vancomycin-resistant Enterococcus faecalis (VRE); test: MIC determination; conditions: Table 3
[8] = system: Acinetobacter baumannii (AB); test: MIC determination; conditions: Table 3
[9] = system: Listeria monocytogenes (LM); test: MIC determination; conditions: Table 3
[10] = system: Vancomycin-Sensitive Enterococcus faecalis (VSE); test: MIC determination; conditions: Table 3
[11] = system: Shigella dysenteriae (SD); test: MIC determination; conditions: Table 3

c1ccc2[nH]c(Cc3c[nH]c4ccccc34)cc2c1
MIC [1]: 32 µg/mL (≈ 130 µM)
MIC [2]: 32 µg/mL (≈ 130 µM)
MIC [3]: 16 µg/mL (≈ 65 µM)
MIC [4]: 1 µg/mL (≈ 4.06 µM)
MIC [5]: 8 µg/mL (≈ 32.5 µM)
MIC [6]: 4 µg/mL (≈ 16.2 µM)

Cc1c2[nH]c3ccccc3c2cc2c1[nH]c1ccccc12 [drawing 263]
MIC [1]: 4 µg/mL (≈ 14.8 µM)
MIC [2]: 2 µg/mL (≈ 7.4 µM)
MIC [3]: 1 µg/mL (≈ 3.7 µM)
MIC [4]: 1 µg/mL (≈ 3.7 µM)
MIC [5]: 1 µg/mL (≈ 3.7 µM)
MIC [6]: ≤ 0.5 µg/mL

CN(C)CCOc1c2[nH]c3ccc(F)cc3c2cc2c1[nH]c1ccc(F)cc12 [drawing 265]
MIC [7]: 2 µg/mL (≈ 5.27 µM)
MIC [8]: 4 µg/mL (≈ 10.5 µM)
MIC [9]: 2 µg/mL (≈ 5.27 µM)
MIC [10]: 1 µg/mL (≈ 2.64 µM)
MIC [11]: 8 µg/mL (≈ 21.1 µM)

N=C(N)NCCCOc1c2[nH]c3ccc(Cl)cc3c2cc2c1[nH]c1ccc(Cl)cc12 [drawing 266]
MIC [7]: 2 µg/mL (≈ 4.54 µM)
MIC [8]: 4 µg/mL (≈ 9.08 µM)
MIC [9]: 1 µg/mL (≈ 2.27 µM)
MIC [10]: 4 µg/mL (≈ 9.08 µM)
MIC [11]: 4 µg/mL (≈ 9.08 µM)

OC1CCN(CCCOc2c3[nH]c4ccc(Cl)cc4c3cc3c2[nH]c2ccc(Cl)cc23)CC1 [drawing 267]
MIC [7]: 2 µg/mL (≈ 4.15 µM)
MIC [8]: 4 µg/mL (≈ 8.29 µM)
MIC [9]: 1 µg/mL (≈ 2.07 µM)
MIC [10]: 4 µg/mL (≈ 8.29 µM)
MIC [11]: 8 µg/mL (≈ 16.6 µM)

N=C(N)NCCCOc1c2[nH]c3ccc(F)cc3c2cc2c1[nH]c1ccc(F)cc12 [drawing 268]
MIC [7]: 2 µg/mL (≈ 4.91 µM)
MIC [8]: 8 µg/mL (≈ 19.6 µM)
MIC [9]: 4 µg/mL (≈ 9.82 µM)
MIC [10]: 8 µg/mL (≈ 19.6 µM)
MIC [11]: 8 µg/mL (≈ 19.6 µM)

Fc1ccc2[nH]c3c(O[C@@H]4CCNC4)c4[nH]c5ccc(F)cc5c4cc3c2c1 [drawing 269]
MIC [7]: 1 µg/mL (≈ 2.65 µM)
MIC [8]: 4 µg/mL (≈ 10.6 µM)
MIC [9]: 2 µg/mL (≈ 5.3 µM)
MIC [10]: 2 µg/mL (≈ 5.3 µM)
MIC [11]: 4 µg/mL (≈ 10.6 µM)

Fc1ccc2[nH]c3c(OCCCNC4=NCCN4)c4[nH]c5ccc(F)cc5c4cc3c2c1 [drawing 270]
MIC [7]: 1 µg/mL (≈ 2.31 µM)
MIC [8]: 4 µg/mL (≈ 9.23 µM)
MIC [9]: 2 µg/mL (≈ 4.61 µM)
MIC [10]: 4 µg/mL (≈ 9.23 µM)
MIC [11]: 8 µg/mL (≈ 18.5 µM)
